Like-named read-outs stand apart in the source and are kept apart here.
What was measured:
[1] = system: scn1lab mutant zebrafish; assay: locomotion (mean swim velocity) seizure-like behaviour assay in scn1lab mutant zebrafish larvae; assay type: in vivo, Danio rerio; conditions: for change in vivo at 100 µM / change in vivo at 250 µM: Danio rerio; for effect on seizure-like swim behaviour, commercially available compounds: three concentrations, 30 and 90 min exposure
Description: (§1) For locomotion studies, zebrafish larvae (5 days post-fertilization) were placed into a single well of a clear flat-bottomed 96-well microplate containing embryo media. Sex determination is not possible at this stage of development. All drug screening experiments were conducted in an unbiased manner by investigators blinded to the test compounds and all files coded for post hoc analysis. The 96-well plate containing larvae was then placed inside a DanioVision box where they were allowed to acclimate (20 min; room temperature). EthoVision XT software (DanioVision, Noldus Information Technology) was used to obtain locomotion plots (10 min in duration). Seizure scoring was performed, as described ([Baraban et al., 2005]). All locomotion plots were analysed for distance travelled (in millimetres) and mean velocity (in millimetres per second). After 90 min of drug exposure larvae were examined for toxic side-effects. Compounds that decreased or stopped the larva heartbeat, or reduced or eliminated the escape response when touched, were considered toxic.
For behaviour analysis, the threshold for a change in mean swim velocity ≥40% is considered significant (>1.5× SD of 250 control treated scn1lab). Unless otherwise indicated, all data in this manuscript are presented as the mean ± standard error of the mean. […] Statistically significant differences are indicated with asterisks (*P < 0.05; **P < 0.01; ***P < 0.001). […]

[2] = system: human 5-HT2R; assay: radioligand binding (NIMH PDSP), any 5-HT2R subtype; conditions: 5-HT2AR, 5-HT2BR, 5-HT2CR
Description: All in vitro binding assay and Ki data studies were performed by the US National Institute of Mental Health Psychoactive Drug Screening Program (NIMH PDSP). For these studies, drugs were screened against recombinant, stably expressed human 5-HT2AR, 5-HT2BR, 5-HT2CR and H1, as described at https://pdspdb.unc.edu/pdspWeb/ ([Besnard et al., 2012]).
Additionally, 5-HT2R modulating compounds exert antiepileptic activity in both preclinical ([Sourbron et al., 2016]; [Griffin et al., 2017]) and clinical studies ([Griffin et al., 2017]; [Schoonjans et al., 2017]; [Kauppila et al., 2018]). […] […].

[3] = target: T1, human 5-HT2CR (Homo sapiens, UniProt P28335)
T1 sequence (P28335 33-458): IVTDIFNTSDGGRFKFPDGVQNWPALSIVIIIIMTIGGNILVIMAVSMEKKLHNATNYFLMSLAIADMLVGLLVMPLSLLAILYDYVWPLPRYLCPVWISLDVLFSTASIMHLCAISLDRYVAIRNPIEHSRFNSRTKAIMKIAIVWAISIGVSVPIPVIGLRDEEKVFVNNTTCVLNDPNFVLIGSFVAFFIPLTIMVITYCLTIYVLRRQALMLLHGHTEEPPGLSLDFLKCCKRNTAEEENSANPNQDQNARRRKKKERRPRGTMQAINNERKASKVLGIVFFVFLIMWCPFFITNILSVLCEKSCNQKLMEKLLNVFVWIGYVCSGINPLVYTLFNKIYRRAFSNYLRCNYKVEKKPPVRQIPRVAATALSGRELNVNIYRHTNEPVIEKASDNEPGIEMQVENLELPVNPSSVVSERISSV

[4] = target: human 5-HT2AR (Homo sapiens, UniProt P28223); conditions: read-out: 5-HT2AR (nM), Table S3, cited from earlier work
[5] = target: human 5-HT2BR (Homo sapiens, UniProt P41595); conditions: commercially available compounds known to bind 5-HT2BR; ref Roth et al., 2000; read-out: 5-HT2BR (nM), Table S3; cited from earlier work
[6] = system: scn1lab mutant zebrafish larvae; assay: toxicity check of larvae after 90 min drug exposure (heartbeat, escape response); assay type: in vivo, Danio rerio; conditions: 90 min exposure
Description: as §1, with “Seizure scoring was performed, as described ([Baraban et al., 2005]).” left out

[7] = read-out: % change in velocity, individual larva 1 (heat map)
[8] = read-out: % change in velocity, individual larva 2 (heat map)
[9] = read-out: % change in velocity, individual larva 3 (heat map)
[10] = read-out: % change in velocity, individual larva 4 (heat map)
[11] = read-out: % change in velocity, individual larva 5 (heat map)
[12] = read-out: % change in velocity, individual larva 6 (heat map)
[13] = read-out: mean velocity change from six fish, Trial 1
[14] = read-out: mean velocity change from six fish, Trial 2
[15] = commercially available compounds known to bind 5-HT2BR; ref Roth et al., 2000; read-out: 5-HT2CR (nM), Table S3; cited from earlier work
[16] = commercially available compounds known to bind 5-HT2BR, ref Roth et al., 2000
[17] = read-out: 5-HT2CR (nM), Table S3; commercially available compounds known to bind 5-HT2BR; ref Roth et al., 2000; cited from earlier work

human 5-HT2AR, sequence (P28223 whole entry): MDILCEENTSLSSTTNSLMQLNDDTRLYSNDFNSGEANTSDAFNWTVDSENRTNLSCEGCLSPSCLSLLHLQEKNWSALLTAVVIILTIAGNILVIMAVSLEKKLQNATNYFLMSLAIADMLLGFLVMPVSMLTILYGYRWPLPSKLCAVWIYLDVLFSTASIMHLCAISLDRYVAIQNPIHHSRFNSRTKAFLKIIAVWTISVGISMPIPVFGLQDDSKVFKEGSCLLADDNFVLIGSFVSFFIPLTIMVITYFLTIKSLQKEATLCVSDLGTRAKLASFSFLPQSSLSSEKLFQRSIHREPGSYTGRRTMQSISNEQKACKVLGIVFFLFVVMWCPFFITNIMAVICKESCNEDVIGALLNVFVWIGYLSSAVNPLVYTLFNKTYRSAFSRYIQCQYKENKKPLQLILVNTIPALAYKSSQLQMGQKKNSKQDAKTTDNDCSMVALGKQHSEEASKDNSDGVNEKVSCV
human 5-HT2BR, sequence (P41595 whole entry): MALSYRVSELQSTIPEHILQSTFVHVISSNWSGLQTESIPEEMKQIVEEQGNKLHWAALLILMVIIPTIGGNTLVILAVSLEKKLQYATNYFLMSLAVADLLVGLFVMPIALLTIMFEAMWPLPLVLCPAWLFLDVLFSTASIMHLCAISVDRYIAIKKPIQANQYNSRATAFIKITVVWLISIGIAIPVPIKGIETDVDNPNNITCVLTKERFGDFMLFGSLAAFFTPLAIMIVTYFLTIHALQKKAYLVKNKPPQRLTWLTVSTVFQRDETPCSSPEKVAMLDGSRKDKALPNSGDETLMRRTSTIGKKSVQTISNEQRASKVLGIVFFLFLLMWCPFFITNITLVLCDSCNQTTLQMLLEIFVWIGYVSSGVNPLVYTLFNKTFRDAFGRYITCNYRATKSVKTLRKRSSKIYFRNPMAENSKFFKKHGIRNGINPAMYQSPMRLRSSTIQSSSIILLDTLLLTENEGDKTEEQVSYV

Question: With `c1cn(CC2CCCCC2)c(CN2CCCC2)n1` [Compound 21] as the molecule, how does the change in vivo at 100 µM [1, 7] read?
Answer: 17.5%

Question: And the change in vivo at 250 µM [1, 7]?
Answer: 52.2%

Question: What about the change in vivo at 100 µM [1, 8] of the same molecule?
Answer: -5.2%

Question: What about the change in vivo at 250 µM [1, 8] of the same molecule?
Answer: -11.5%

Question: And the change in vivo at 100 µM [1, 9]?
Answer: 11.1%

Question: What about the change in vivo at 250 µM [1, 9] of the same molecule?
Answer: 80.9%

Question: What about the change in vivo at 100 µM [1, 10] of the same molecule?
Answer: 8.5%

Question: What about the change in vivo at 250 µM [1, 10] of the same molecule?
Answer: -44.9%

Question: And the change in vivo at 100 µM [1, 11]?
Answer: 13.2%

Question: And the change in vivo at 250 µM [1, 11]?
Answer: 37.8%

Question: What about the change in vivo at 100 µM [1, 12] of the same molecule?
Answer: 24%

Question: What about the change in vivo at 250 µM [1, 12] of the same molecule?
Answer: -14.2%

Question: What about the change in vivo at 100 µM [1, 13] of the same molecule?
Answer: 12.5%

Question: And the change in vivo at 250 µM [1, 13]?
Answer: 6.5%

Question: What about the change in vivo at 100 µM [1, 14] of the same molecule?
Answer: 12.5%

Question: And the change in vivo at 250 µM [1, 14]?
Answer: 6.5%

Question: And the “binding to any human 5-HT2R” value [2]?
Answer: no significant binding

Question: Which “effect on seizure-like swim behaviour, commercially available compounds” value [1] does the source give for `C[C@H](N)Cn1ccc2cc(F)c(Cl)cc21` [Ro 60-0175] here?
Answer: borderline effective

Question: And the Ki [3, 15]?
Answer: 9.1 nM

Question: What about the Ki [4] of the same molecule?
Answer: 37.2 nM

Question: What about the Ki [5] of the same molecule?
Answer: 4.3 nM

Question: What does the source list for `Br.CN(C)C1CCc2cc(O)c(O)cc2C1` (centres unmarked) [TL-99]?
Answer: effect on seizure-like swim behaviour, commercially available compounds [1]: failed to elicit any behavioural effect; Ki [3, 15]: 2290 nM; Ki [4, 16]: 2340 nM; Ki [5]: 2040 nM

Question: With `C=CCN1C[C@H](C(=O)N(CCCN(C)C)C(=O)NCC)C[C@@H]2c3cccc4[nH]cc(c34)C[C@H]21` [cabergoline, Cabergoline] as the molecule, how does the “effect on convulsive swim behaviour at 250 µM” value ([1]; 250 µM) read?
Answer: significantly reduced convulsive swim behaviour

Question: And the Ki [3, 17]?
Answer: 692 nM

Question: And the Ki [4, 16]?
Answer: 6.17 nM

Question: With `c1cnc(N2CCN(Cc3ccc4c(c3)OCO4)CC2)nc1` [piribedil, Piribedil, reference compound] as the molecule, how does the “toxicity at 100 µM” value ([6]; 100 µM) read?
Answer: toxicity

Question: And the “toxicity at 250 µM” value ([6]; 250 µM)?
Answer: toxicity

Question: What about the Ki [3, 17] of the same molecule?
Answer: > 10000 nM

Question: What about the Ki [4, 16] of the same molecule?
Answer: > 10000 nM
